According to paper PMC8488277, “Permeability Data of Organosulfur Garlic Compounds Estimated by Immobilized Artificial Membrane Chromatography: Correlation Across Several Biological Barriers” (Frontiers in Chemistry, 2021):
Read-outs that look alike come from different tables or passages of the source.

Tests used:
[1] = IAM-HPLC chromatographic capacity factor (log k' IAM); assay type: physicochemical; settings: IAM.PC.MG 12 µm column; isocratic ACN/0.035 M phosphate buffer pH 6.8 (30:70 v/v), 0.5 ml/min; k'=(Tr–T0)/T0; mean of 2–4 determinations
Description: Chromatographic analysis was performed using a Shimadzu LC 20A chromatograph coupled to a diode array detector, operated at a range of 210–260 nm, depending on the analyzed compound. A biomimetic commercially available column was used in all experiments: IAM. PC.MG12 µm (150 × 4.6 mm) was purchased from Regis Chemical Company (Morton Grove, IL).
OSC separation conditions under IAM-HPLC were adapted from [Luco et al. (2003]) and [Barbato et al. (1998]), with modifications. The chromatographic mode consisted in an isocratic elution used as the mobile phase ACN/0.035 M phosphate buffer −pH 6.8− (30:70 (v/v)) at 0.5 ml min^−1. The column dead time (T0) was estimated by ascorbic acid retention time which was measured at 210 nm. The obtained retention data were used to calculate the chromatographic parameter corresponding to the capacity factor k’ as follows: k’ = (Tr–T0)/T0. All capacity factors given represent the mean of 2–4 determinations of each sample solution.
For this study, we considered 28 phytochemical compounds containing sulfur-based groups. […] Most of these compounds are garlic-derived substances with bioactive functions. […] We chose them because of their bioactive functionality and their similar metabolism within the plants and human body. Each analytical standard stock solution was prepared in the mobile phase at concentrations ranging from 100 to 800 µg ml^−1, depending on the solubility of the compound and their DAD detector response. Peak identification in samples was carried out by comparing retention times with reference standards.

[2] = design: method as in Egen-Schwind et al., 1992; settings: ref Egen-Schwind et al., 1992, cited from earlier work; for lipophilicity (relative, in words): 1,3- vs 1,2-vinyldithiin; for elimination / tissue accumulation: serum, kidney, fat tissue
[3] = design: method as in Torres-Palazzolo et al. (2018); settings: ref Torres-Palazzolo et al. (2018); cited from earlier work
[4] = cited from earlier work

Molecule | Log (k'IAM) [1] | further results
C[S+]([O-])C[C@H](N)C(=O)O (single isomer, unassigned; (+)) [Methiin, (+)-S-methyl-L-cysteine sulfoxide] | −1.922 | –
CC=C[S+]([O-])C[C@H](N)C(=O)O (stereo in doubt) [Isoalliin, (+)-S-trans-1-propenyl-L-cysteine sulfoxide] | −0.734 | –
C=CC1CC=CSS1 (stereo not drawn) [1,2-vinyldithiin] | – | lipophilicity (relative, in words) [2]: more lipophilic; elimination / tissue accumulation [2]: showed a tendency to accumulate in fat tissues
C=CC1SC=CCS1 (stereo not drawn) [2-vinyldithiin, 2-Vinyl-4H-1,3-dithiine] | 0.237 | lipophilicity (relative, in words) [2]: less lipophilic; elimination / tissue accumulation [2]: rapidly eliminated from serum, the kidney, and fat tissue; permeation through the intestine [3]: less than 5%
C=CCS[S+]([O-])CC=C (stereo not drawn) [Allicin, diallyl thiosulfinate] | −0.409 | cellular permeability (in words) ([4]; ref Rahman, 2007): can easily permeate cell membranes of phospholipids bilayers; metabolism (in words) ([4]; ref Rahman, 2007): rapidly metabolized and transformed into other active compounds; permeation through the intestine [3]: less than 5%
C=CCN=C=S [Allyl isothiocyanate] | 0.118 | –
C=CCS [Allyl mercaptan] | −0.197 | –
C=CCSC [Allyl methyl sulfide, allyl methyl sulfide] | −1.021 | –
S=C=NCc1ccccc1 [Benzyl isothiocyanate] | 0.571 | –
C=CCSSSCC=C [Diallyl Trisulfide, diallyl trisulfide] | 0.781 | cellular permeability (in words) ([4]; not told): high cellular permeability
C=CCSSCC=C [Diallyl disulfide, diallyl disulfide] | 0.554 | cellular permeability (in words) ([4]; ref Rahman, 2007): high cellular permeability
C=CCSCC=C [Diallyl sulfide, diallyl sulfide] | 0.222 | permeation through the intestine [3]: less than 5%
CSSC [Dimethyl disulfide, dimethyl disulfide] | −0.017 | –
C=CCSS/C=C/C[S+]([O-])CC=C (stereo not drawn) [E-Ajoene] | 0.022 | –
CCSSCC [Ethyl disulfide] | 0.420 | –
CCSCC [Ethyl sulfide] | −0.099 | –
c1coc(CSSCc2ccco2)c1 [Furfuryl disulfide, furfuryl disulfide] | 0.713 | –
OCc1c[nH]c2ccccc12 [Indole-3-carbinol, indole-3-carbinol] | −0.204 | –
CCCSSSC [Methyl Propyl Trisulfide] | 0.810 | –
S=C=NCCc1ccccc1 [Phenethyl isothiocyanate] | 0.663 | –
S=C=Nc1ccccc1 [Phenyl isothiocyanate] | 0.746 | –
CCCSSCCC [Propyl disulfide] | 0.913 | –
C[S+]([O-])CCCCN=C=S (stereo not drawn) [Sulforaphane, sulforaphane] | −0.514 | –
C[S+]([O-])/C=C/CCN=C=S (stereo not drawn) [Sulforaphene, S-sulforaphene] | −0.521 | –
C=CCSS/C=C\C[S+]([O-])CC=C (stereo not drawn) [Z-Ajoene] | 0.015 | –
S-allyl-L-cysteine | −1.102 | cellular permeability (in words) ([4]; ref Rahman, 2007): high cellular permeability
S-methyl-L-cysteine | −1.322 | –
S-propyl-L-cysteine | −1.645 | –
